Assay results: the NIST ThermoML archive (doi:10.1016/j.jct.2013.04.015)

Test: xn = mol fraction of the nth substance listed
Details: for surface tension liquid-gas: Wilhelmy plate method; for mass density: 101 kPa, Liquid, Vibrating tube method

CCCCn1cc[n+](C)c1.C[C@H](O)C(=O)[O-] [1-butyl-3-methylimidazolium L-lactate] + CO
Details | mass density [kg/m3] | surface tension liquid-gas [mN/m]
298.15 K, x1 = 0.0121 | – | 23.38
298.15 K, x1 = 0.0353 | – | 24.72
298.15 K, x1 = 0.0496 | – | 25.63
298.15 K, x1 = 0.0699 | – | 26.72
298.15 K, x1 = 0.0901 | – | 28.06
298.15 K, x1 = 0.0998 | 960.5 | –
298.15 K, x1 = 0.1051 | – | 28.6
298.15 K, x1 = 0.1968 | 1022.4 | –
298.15 K, x1 = 0.1995 | – | 31.01
298.15 K, x1 = 0.3 | 1063.1 | –
298.15 K, x1 = 0.3011 | – | 33.55
298.15 K, x1 = 0.3999 | 1075.9 | –
298.15 K, x1 = 0.4038 | – | 35.7
298.15 K, x1 = 0.5 | 1082.9 | –
298.15 K, x1 = 0.5029 | – | 36.97
298.15 K, x1 = 0.5996 | 1088 | –
298.15 K, x1 = 0.614 | – | 38.06
298.15 K, x1 = 0.7001 | 1090.5 | –
298.15 K, x1 = 0.7037 | – | 38.57
298.15 K, x1 = 0.8002 | 1091.5 | –
298.15 K, x1 = 0.8056 | – | 39.25
298.15 K, x1 = 0.8988 | 1097.8 | –
298.15 K, x1 = 0.9152 | – | 40.89
298.15 K, x1 = 1 | 1111.2 | 42.92
308.15 K, x1 = 0.0115 | – | 22.56
308.15 K, x1 = 0.0346 | – | 24.12
308.15 K, x1 = 0.0544 | – | 25.1
308.15 K, x1 = 0.0702 | – | 26.05
308.15 K, x1 = 0.091 | – | 27.26
308.15 K, x1 = 0.0998 | 956.6 | –
308.15 K, x1 = 0.1058 | – | 28.32
308.15 K, x1 = 0.1968 | 1019.4 | –
308.15 K, x1 = 0.2002 | – | 30.7
308.15 K, x1 = 0.3 | 1057.4 | –
308.15 K, x1 = 0.3033 | – | 33.15
308.15 K, x1 = 0.3999 | 1070.5 | –
308.15 K, x1 = 0.4003 | – | 35.37
308.15 K, x1 = 0.5 | 1077.4 | –
308.15 K, x1 = 0.5032 | – | 36.69
308.15 K, x1 = 0.5913 | – | 37.46
308.15 K, x1 = 0.5996 | 1084.2 | –
308.15 K, x1 = 0.7001 | 1085.4 | –
308.15 K, x1 = 0.7064 | – | 37.66
308.15 K, x1 = 0.791 | – | 38.03
308.15 K, x1 = 0.8002 | 1087.2 | –
308.15 K, x1 = 0.8938 | – | 39.37
308.15 K, x1 = 0.8988 | 1089 | –
308.15 K, x1 = 1 | 1104.2 | 42.37
318.15 K, x1 = 0.0118 | – | 21.91
318.15 K, x1 = 0.0364 | – | 23.48
318.15 K, x1 = 0.0527 | – | 24.57
318.15 K, x1 = 0.0711 | – | 25.49
318.15 K, x1 = 0.0907 | – | 26.91
318.15 K, x1 = 0.0998 | 953.2 | –
318.15 K, x1 = 0.1085 | – | 27.8
318.15 K, x1 = 0.1968 | 1014.3 | –
318.15 K, x1 = 0.2003 | – | 29.96
318.15 K, x1 = 0.3 | 1051.9 | –
318.15 K, x1 = 0.302 | – | 32.56
318.15 K, x1 = 0.3999 | 1066.8 | –
318.15 K, x1 = 0.4072 | – | 35.2
318.15 K, x1 = 0.5 | 1074.7 | –
318.15 K, x1 = 0.5096 | – | 36.52
318.15 K, x1 = 0.5996 | 1077.7 | –
318.15 K, x1 = 0.6103 | – | 36.74
318.15 K, x1 = 0.7001 | 1078 | –
318.15 K, x1 = 0.7054 | – | 36.95
318.15 K, x1 = 0.8002 | 1078.9 | –
318.15 K, x1 = 0.8108 | – | 37.31
318.15 K, x1 = 0.8845 | – | 38.3
318.15 K, x1 = 0.8988 | 1079.9 | –
318.15 K, x1 = 1 | 1097.7 | 42.01

CCCCn1cc[n+](C)c1.C[C@H](O)C(=O)[O-] [1-butyl-3-methylimidazolium L-lactate] + O
Details | mass density, 298.15 K [kg/m3] | mass density, 308.15 K [kg/m3] | mass density, 318.15 K [kg/m3] | surface tension liquid-gas, 298.15 K [mN/m] | surface tension liquid-gas, 308.15 K [mN/m] | surface tension liquid-gas, 318.15 K [mN/m]
x1 = 0.0097 | – | – | – | 53.67 | 51.15 | 49.79
x1 = 0.0303 | – | – | – | 47.86 | 46.42 | 45.58
x1 = 0.0401 | – | – | – | 46.95 | 46.08 | 45.57
x1 = 0.0602 | – | – | – | 46.15 | 45.87 | 45.55
x1 = 0.0801 | – | – | – | 46.98 | 46.54 | 46.18
x1 = 0.1 | – | – | – | 46.96 | 46.83 | 46.15
x1 = 0.1001 | 1042.3 | 1039.4 | 1036.4 | – | – | –
x1 = 0.2001 | 1061.4 | 1058.3 | 1055 | 46.03 | 44.94 | 44.2
x1 = 0.2999 | 1075 | 1071 | 1066.6 | – | – | –
x1 = 0.3003 | – | – | – | 44.61 | 43.59 | 42.86
x1 = 0.3985 | 1083.6 | 1079.1 | 1074.1 | – | – | –
x1 = 0.3997 | – | – | – | 44.08 | 43.16 | 42.44
x1 = 0.4994 | – | – | – | 43.46 | 43.07 | 42.27
x1 = 0.5023 | 1090.3 | 1085.4 | 1080.2 | – | – | –
x1 = 0.5989 | – | – | – | 43.47 | 42.87 | 42.11
x1 = 0.6002 | 1095.7 | 1090.2 | 1084.3 | – | – | –
x1 = 0.6982 | – | – | – | 43.41 | 42.62 | 42.02
x1 = 0.6986 | 1099.8 | 1093.5 | 1087.4 | – | – | –
x1 = 0.8 | 1103.3 | 1096.6 | 1090.3 | – | – | –
x1 = 0.8017 | – | – | – | 43.35 | 42.54 | 42
x1 = 0.8965 | – | – | – | 43.2 | 42.48 | 41.82
x1 = 0.9001 | 1107.2 | 1100.3 | 1093.8 | – | – | –
x1 = 1 | 1111.2 | 1104.2 | 1097.7 | 42.92 | 42.37 | 42.01

CCCCO [butan-1-ol] + CCCCn1cc[n+](C)c1.C[C@H](O)C(=O)[O-]
x2 = 0
Details | mass density [kg/m3] | surface tension liquid-gas [mN/m]
298.15 K | 805.7 | 23.89
308.15 K | 798 | 23.46
318.15 K | 790.1 | 22.62

CCO [ethanol] + CCCCn1cc[n+](C)c1.C[C@H](O)C(=O)[O-]
x2 = 0
Details | mass density [kg/m3] | surface tension liquid-gas [mN/m]
298.15 K | 784.7 | 22.11
308.15 K | 776.2 | 21.13
318.15 K | 767 | 20.48

CO [methanol] + CCCCn1cc[n+](C)c1.C[C@H](O)C(=O)[O-]
x2 = 0
Details | mass density [kg/m3] | surface tension liquid-gas [mN/m]
298.15 K | 786.4 | 22.22
308.15 K | 776.9 | 21.46
318.15 K | 767.2 | 20.46

O [water] + CCCCn1cc[n+](C)c1.C[C@H](O)C(=O)[O-]
x2 = 0
Details | mass density [kg/m3] | surface tension liquid-gas [mN/m]
298.15 K | – | 71.85
308.15 K | 994.1 | 70.48
318.15 K | – | 68.89
